This note sets out measurements from patent US9156830B2, “Heterocyclic compounds” (SHIONOGI & CO., LTD., priority 2011, dated 2015).

The data set is described as follows: Measurement of Body Temperature Increase. The format is in vivo. To be noted: Crl/SD rats, oral, 1 mg/mL in 0.5% methylcellulose at 10 mL/kg; rectal temperature 0.5, 1 and 2 hrs after administration; difference from vehicle group average. How it is done:
Selection of rats (Crl/SD rats, 7 weeks, male) for this study is based on rectal body temperature measured during the morning of the day of dosing. In addition, animals selected for this study are acclimated to both the rectal measurement procedure and to being handled and dosed to minimize spontaneous, stress-induced, increases in body temperature. The study is conducted in the animal care laboratories where the room temperature and humidity are kept. The rats are free to move and food and water during the study. Each rat is numbered with color line on the tail, housed in each cage and permittted the normal range of movement. Immediately before each body temperature is measured, they transferred to a single cage at each measurement. To reduce stress which affected the body temperature, the rats are covered with towels at the measurement. The thermistor probe is then carefully inserted into the rectum of each rat and left in place until the value on the digital display had stabilized.
On the day before dosing, rectal body temperatures are measured at 9:00, 10:00, 11:00, 12:30, 13:30, 14:30 and 15:30 to familiarize the animals with the measurement procedure prior to administration of the test or control treatments. The rats are also dosed by oral gavage without vehicle at 12:30 to acclimate and familiarized the animals with the handling and dosing procedure.
On the day of dosing, only rats whose rectal body temperatures are within the range of 37.0° C. to 37.7° C. are selected for this study. Rectal body temperatures are measured at 9:00, 10:00 and 11:00. Rats whose rectal body temperatures are over 37.9° C. at 10:00, and are outside the range of 37.0° C. to 37.7° C. at 11:00 are excluded from the study. The selected rats are divided to several groups based on their rectal body temperatures at 11:00. Rectal body temperatures of the selected rats are measured again at 12:30, and any rats whose rectal body temperature is 38.0° C. or greater are excluded from the study.
Following the group assignment, test compounds or vehicle is administrated to the rats. Each test compound is dissolved in 0.5% methylcellulose and the final concentration of the compound is adjusted to 1 mg/mL. Test compound is orally administrated in a volume 10 mL/kg once. 10 mL/kg of vehicle (0.5% methylcellulose) is administered to the vehicle group. The rectal body temperatures are measured 0.5, 1 and 2 hrs after the administration. The study is conducted in the animal care laboratories where the room temperature and humidity are kept.
Body temperature increase (ΔTb) is calculated from the difference from an average of the vehicle group at each time point. The body temperature increases (ΔTb) of Compounds I-20, I-25, I-26, I-28, I-29, I-33, I-34, I-36, I-37, I-63 and I-64 were less than 0.3° C.

In the case of `O=C(Nc1ccc(C(F)(F)F)c(Cl)c1)N1CC=C(c2ncc(-c3cc(CO)on3)cc2Cl)CC1` [Compound I-29, N-(3-chloro-4-(trifluoromethyl)phenyl)-4-(3-chloro-5-(5-(hydroxymethyl)isoxazol-3-yl)pyridin-2-yl)-5,6-dihydropyridine-1(2H)-carboxamide], the “Body temperature increase (ΔTb)” value was “less than 0.3 °C”. On to `O=C(Nc1ccc(C(F)(F)F)c(Cl)c1)N1CC=C(c2ncc(-c3ocnc3CO)cc2Cl)CC1` [Compound I-28, N-(3-chloro-4-(trifluoromethyl)phenyl)-4-(3-chloro-5-(4-(hydroxymethyl)oxazol-5-yl)pyridin-2-yl)-5,6-dihydropyridine-1(2H)-carboxamide], for which the “Body temperature increase (ΔTb)” value was “less than 0.3 °C”. On to `O=C(Nc1ccc(C(F)(F)F)cn1)N1CC=C(c2ncc(-c3nc(CO)no3)cc2Cl)CC1` [Compound I-37, 4-(3-chloro-5-(3-(hydroxymethyl)-1,2,4-oxadiazol-5-yl)pyridin-2-yl)-N-(5-(trifluoromethyl)pyridin-2-yl)-5,6-dihydropyridine-1(2H)-carboxamide], for which the “Body temperature increase (ΔTb)” value is “less than 0.3 °C”.

Turning to `O=C(Nc1ccc(C(F)(F)F)cn1)N1CC=C(c2ncc(-c3cc(CO)on3)cc2Cl)CC1` [Compound I-33, 4-(3-chloro-5-(5-(hydroxymethyl)isoxazol-3-yl)pyridin-2-yl)-N-(5-(trifluoromethyl)pyridin-2-yl)-5,6-dihydropyridine-1(2H)-carboxamide], the “Body temperature increase (ΔTb)” value was “less than 0.3 °C”.

`Cc1cc(NC(=O)N2CC=C(c3ncc(-c4nc(CO)no4)cc3F)CC2)ccc1C(F)(F)F` [Compound I-64, 4-(3-fluoro-5-(3-(hydroxymethyl)-1,2,4-oxadiazol-5-yl)pyridin-2-yl)-N-(3-methyl-4-(trifluoromethyl)phenyl)-5,6-dihydropyridine-1(2H)-carboxamide]: the “Body temperature increase (ΔTb)” value was “less than 0.3 °C”.

As for `O=C(Nc1ccc(C(F)(F)F)cn1)N1CC=C(c2ncc(-c3nc(CO)no3)cc2F)CC1` [Compound I-63, 4-(3-fluoro-5-(3-(hydroxymethyl)-1,2,4-oxadiazol-5-yl)pyridin-2-yl)-N-(5-(trifluoromethyl)pyridin-2-yl)-5,6-dihydropyridine-1(2H)-carboxamide], the “Body temperature increase (ΔTb)” value is “less than 0.3 °C”.

For `O=C(Nc1ccc(C(F)(F)F)c(Cl)c1)N1CC=C(c2ncc(-c3noc(CO)n3)cc2Cl)CC1` [Compound I-25, N-(3-chloro-4-(trifluoromethyl)phenyl)-4-(3-chloro-5-(5-(hydroxymethyl)-1,2,4-oxadiazol-3-yl)pyridin-2-yl)-5,6-dihydropyridine-1(2H)-carboxamide], the “Body temperature increase (ΔTb)” value was “less than 0.3 °C”. The result for `O=C(Nc1ccc(C(F)(F)F)cn1)N1CC=C(c2ncc(-c3noc(CO)n3)cc2Cl)CC1` [Compound I-26, 4-(3-chloro-5-(5-(hydroxymethyl)-1,2,4-oxadiazol-3-yl)pyridin-2-yl)-N-(5-(trifluoromethyl)pyridin-2-yl)-5,6-dihydropyridine-1(2H)-carboxamide] reads “less than 0.3 °C”.
